Experimental data published in patent US20150126507A1, “COMPOUNDS TO TREAT HEARING LOSS” (Fate Therapeutics, Inc., priority 2013, published 2015).

T1: AHR (Homo sapiens, UniProt P35869)
T1 construct: HEK293 cells were transduced with a lentiviral vector containing a concatamer of Atoh1 enhancer A and B elements; endogenous in cells; host or cells: HEK293-derived Atoh1 reporter cell line
T1 sequence (P35869 11-848): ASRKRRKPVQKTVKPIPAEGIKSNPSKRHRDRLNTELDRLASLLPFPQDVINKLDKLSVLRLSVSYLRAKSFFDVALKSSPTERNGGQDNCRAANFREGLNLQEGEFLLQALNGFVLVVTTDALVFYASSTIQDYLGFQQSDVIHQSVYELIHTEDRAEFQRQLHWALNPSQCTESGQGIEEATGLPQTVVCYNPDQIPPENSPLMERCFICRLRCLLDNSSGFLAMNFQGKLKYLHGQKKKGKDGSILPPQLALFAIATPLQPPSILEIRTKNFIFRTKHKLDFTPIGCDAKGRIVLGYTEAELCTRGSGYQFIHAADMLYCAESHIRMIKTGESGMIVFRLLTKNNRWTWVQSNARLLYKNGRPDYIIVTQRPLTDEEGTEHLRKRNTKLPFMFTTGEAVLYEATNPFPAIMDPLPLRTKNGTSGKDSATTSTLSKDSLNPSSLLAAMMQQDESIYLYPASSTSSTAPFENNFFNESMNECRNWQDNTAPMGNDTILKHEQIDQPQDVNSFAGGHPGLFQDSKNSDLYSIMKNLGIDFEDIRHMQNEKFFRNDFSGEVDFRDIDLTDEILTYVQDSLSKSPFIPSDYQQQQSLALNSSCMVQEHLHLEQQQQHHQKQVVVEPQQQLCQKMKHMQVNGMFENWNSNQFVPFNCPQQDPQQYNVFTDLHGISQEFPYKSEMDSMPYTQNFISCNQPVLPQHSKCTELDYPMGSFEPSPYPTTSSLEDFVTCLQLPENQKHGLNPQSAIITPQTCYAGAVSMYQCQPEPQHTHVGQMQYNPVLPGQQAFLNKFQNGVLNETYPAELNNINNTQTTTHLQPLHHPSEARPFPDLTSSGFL

B1: AHR siRNA: pool of four siRNA sequences against human AHR (Thermo Scientific) (nucleic acid)
guide 1: GCAAGUUAAUGGCAUGUUU
guide 2: GAACUCAAGCUGUAUGGUA
guide 3: GCACGAGAGGCUCAGGUUA
guide 4: GCAACAAGAUGAGUCUAUU
modifications: pool of four siRNAs, further chemistry not given here

Tested on: Atoh1 enhancer reporter in HEK293 cells
Experiment: Atoh1 reporter cell line, firefly luciferase normalized to renilla luciferase
Assay type: cell-based
Settings: Atoh1 reporter cell line treated with AHR agonists for 2 days
Description: FIG. 2. Dose response data for selected hits. Atoh1 reporter cells plated in 384 well plates were treated with test compounds or vehicle controls for 2 days. Firefly luciferase signal was measured and normalized to the renilla luciferase signal. Results from duplicate wells (circles and triangles) are expressed relative to normalized controls treated with DMSO.
A reporter cell line expressed in HEK293 cells in which Atoh1 enhancer elements flanked a minimal promoter driving firefly luciferase expression was created. Dose response data was generated in the reporter cell line. Atoh1 reporter cells plated in […] plates were treated with test compounds or vehicle controls for 2 days. Firefly luciferase signal was measured and normalized to the renilla luciferase signal.
For high-throughput screening, HEK293 cells were transduced with a lentiviral vector containing a concatamer of Atoh1 enhancer A and B elements, the Promega minP minimal promoter, firefly luciferase coding sequence and hygromycin selectable marker. After selection, the cells were transduced with a second lentiviral vector containing the EF1α constitutive promoter, Renilla luciferase and puromycin selectable marker. A clonal derivative expressing both transgenes was expanded and banked for screening.
A screening assay was done by plating 8000 cells/well in 384 well plates, and treating for 48 hours with 1 and 10 μM test compound in DMSO, vehicle control, or the GSK-3B inhibitor, BIO, as a positive control. Firefly and Renilla luciferase were measured sequentially using Dual-Glo (Promega) with an Envision multi-label plate reader (Perkin Elmer). Data were analyzed after normalizing firefly luciferase signals to Renilla luciferase signals. A primary screen of 50,000 diverse compounds identified 140 hits. […] 10 of these 41 hits were selected for further analysis
To confirm activity in the 10 selected hits, the test compounds were reassayed at 3.3×10^−9, 1×10^−8, 3.3×10^−8, 1×10^−7, 3.3×10^−7, 1×10^−6, 3.3×10^−6 and 1×10^−5 molar concentrations. […] Results from duplicate wells (circles and triangles) are expressed relative to normalized controls treated with DMSO.

Molecule	Atoh1 reporter activity
COC(=O)c1csc(C(=O)c2c[nH]c3ccccc23)n1 [ITE, reference compound]	stimulated Atoh1 reporter activity
CN1C(=O)/C(=C2\Nc3ccccc3\C2=N/O)c2ccc(Br)cc21 [MeBIO, reference compound]	stimulated Atoh1 reporter activity
Br.Cc1ccc(C(=O)Cn2c3c(sc2=N)CCCC3)cc1 [Pfithrin-α-hydrobromide, reference compound]	stimulated Atoh1 reporter activity

Same assay, conditions: Homo sapiens, HEK293, 48 h, Atoh1 reporter HEK293 cells, treated 2 days, dose response; read-out: ED50 (the source's name)

Molecule	EC50
Cc1c(C(=O)N(C)c2nccs2)oc2ccccc12 [Compound 1, N,3-dimethyl-N-(thiazol-2-yl)benzofuran-2-carboxamide]	1600 nM
CN(C(=O)c1cc2ccccc2o1)c1nccs1 [Compound 2, N-methyl-N-(thiazol-2-yl)benzofuran-2-carboxamide]	700 nM
Cc1nc(NC(=O)c2oc3ccccc3c2C)sc1C [Compound 3]	2700 nM
CCOC(=O)c1sc(NC(=O)c2oc3ccccc3c2C)nc1C [Compound 5]	700 nM
Cc1c(C(=O)Nc2nc(-c3ccccc3)cs2)oc2ccccc12 [Compound 6]	1300 nM
Cc1c(C(=O)Nc2nc(C(C)(C)C)cs2)oc2ccccc12 [Compound 7]	1300 nM
Cc1c(C(=O)Nc2nc(S(C)(=O)=O)cs2)oc2ccccc12 [Compound 8]	1100 nM
Cc1nc(NC(=O)c2oc3ccccc3c2C)sc1C(=O)N(C)C [Compound 9]	1700 nM
COc1ccc2nc(NC(=O)c3oc4ccccc4c3C)sc2c1 [Compound 11]	700 nM
Cc1c(C(=O)Nc2nc3ccc(Cl)cc3s2)oc2ccccc12 [Compound 12]	600 nM
O=C(Nc1nccs1)c1cc2ccccc2o1 [Compound 13]	400 nM
COc1cccc2cc(C(=O)Nc3ncc(C)s3)oc12 [Compound 15]	1000 nM
COc1cccc2cc(C(=O)Nc3nccs3)oc12 [Compound 16]	2700 nM
O=C(Nc1nc2c(s1)CCCC2)c1cc2ccccc2o1 [Compound 17]	400 nM
Cc1c(C(=O)Nc2nccs2)oc2c1ccc1ccccc12 [Compound 18]	> 3000 nM
Cc1c(C(=O)Nc2nccs2)oc2c(Cl)cccc12 [Compound 19]	700 nM
COc1ccc2oc(C(=O)Nc3nc(CN4CCOCC4)cs3)c(C)c2c1 [Compound 21]	900 nM
CSCc1c(C(=O)Nc2nccs2)oc2ccccc12 [Compound 22]	500 nM

Molecule	EC50
CCOc1ccc2oc(C(=O)Nc3nccs3)c(C)c2c1 [Compound 23]	500 nM
O=C(Nc1nccs1)c1oc2ccccc2c1COc1ccccc1 [Compound 24]	700 nM
COCc1c(C(=O)Nc2nccs2)oc2ccccc12 [Compound 25]	1700 nM
Cc1csc(N(C(=O)c2cc3ccccc3o2)c2ccccc2)n1 [Compound 26]	> 3000 nM
Cc1cnc(NC(=O)c2cc3ccccc3o2)s1 [Compound 27]	200 nM
CSCc1c(C(=O)Nc2nc(C)cs2)oc2ccccc12 [Compound 28]	1300 nM
CN(C(=O)c1cc2cccc(Br)c2o1)c1nccs1 [Compound 29]	1400 nM
O=C(Nc1nccs1)c1cc2cc(Br)ccc2o1 [Compound 30]	> 3000 nM
Cc1c(C(=O)Nc2nccs2)oc2ccc(F)cc12 [Compound 31]	600 nM
CCc1nc(NC(=O)c2oc3c(F)cccc3c2C)sc1C [Compound 32]	1000 nM
Cc1cnc(NC(=O)c2oc3ccc(Br)cc3c2C)s1 [Compound 33]	400 nM
Cc1csc(NC(=O)c2oc3ccc(Br)cc3c2C)n1 [Compound 34]	1600 nM
COc1ccc2oc(C(=O)Nc3nc(C)cs3)c(C)c2c1 [Compound 35]	500 nM
Cc1c(C(=O)Nc2nccs2)oc2ccc(Br)cc12 [Compound 36]	800 nM
Cc1csc(NC(=O)c2oc3ccc(F)cc3c2C)n1 [Compound 37]	2300 nM
Cc1csc(NC(=O)c2oc3c(Cl)cccc3c2C)n1 [Compound 38]	> 3000 nM
CC(=O)c1sc(NC(=O)c2cc3ccccc3o2)nc1C [Compound 39]	500 nM
Cc1c(C(=O)Nc2nccs2)oc2ccc(Cl)cc12 [Compound 41]	400 nM

Tested on: P5 rat cochlear explants
Experiment: Tobramycin treatment of cochlear explants, hair cell and supporting cell marker mRNA
Assay type: cell-based
Settings: tobramycin 1 mM, 3 days
Description: The ten selected hits of Example 43 were assayed for the ability to induce Atoh1 expression in primary cultured cochlear explants from the neonatal rat. Postnatal day 5 (P5) rat cochlear explants were cultured with the ototoxic aminoglycoside antibiotic, tobramycin (1 mM), for 3 days prior to drug testing, as an in vitro model of drug-induced hearing loss. […] See, e.g., Ruedi, et al., Larynoscope 62:333-357 (1952). After the 3 day tobramycin pretreatment, the cochlear explants were cultured with the compounds of Example 43 or DMSO vehicle for an additional 2 days. Atoh1 expression levels, measured by qRT-PCR and normalized to ribosomal 18S expression, after hit compound treatments are shown in FIG. 3.

Molecule	Sox2 mRNA (supporting cell marker)	reduction of Atoh1 mRNA level	reduction of MYO7A mRNA level
NC[C@H]1O[C@H](O[C@H]2[C@H](O)[C@@H](O[C@H]3O[C@H](CO)[C@@H](O)[C@H](N)[C@H]3O)[C@H](N)C[C@@H]2N)[C@H](N)C[C@@H]1O [tobramycin]	without reducing	more than 80%	more than 80%

Biological target: T1, AHR
Experiment: AHR siRNA analysis in Atoh1 reporter cell line, luciferase assay and qRT-PCR
Assay type: cell-based
Settings: 75 nM siRNA, 5 μM Compound 4 for 48 hours, luciferase assay
Description: An siRNA analysis was used to determine if AHR is required for the Atoh1-inducing activity of Compound 4. One day before transfection, the Atoh1 reporter cell line was plated at 1.5×10^5 cells/well in a 24-well plate. The cells were transfected with 75 nM on-target plus human AHR siRNA SMART pool or Non-target pool using DharmaFECT1 (Thermo Scientific). AHR siRNA sequences in the SMART pool were GCAAGUUAAUGGCAUGUUU, GAACUCAAGCUGUAUGGUA, GCACGAGAGGCUCAGGUUA, and GCAACAAGAUGAGUCUAUU. Mock-transfected cells served as an additional negative control. 16 hours after transfection, media were replaced with fresh complete medium containing 5 μM Compound 4 or DMSO. After 48 hours of treatment, cells were analyzed by luciferase assay and qRT-PCR.
AHR siRNA reduced AHR expression by 69%, while the control siRNA was without effect. […] Results are expressed in FIGS. 6A and 6B as the average±S.D. for triplicate wells. […] See, e.g., Ben-Arie, et al., Human Mol. Genetics 5(9):1207-1216 (1996).

Molecule	reduction of Compound 4-mediated Atoh1 reporter activity
B1	54%

Same assay, conditions: 75 nM siRNA, qRT-PCR

Molecule	reduction of AHR expression
B1	69%
